± gives the expanded uncertainty stated by the source.
Test: xn = mol fraction of the nth substance listed
Conditions: 101 kPa, Liquid

CCn1cc[n+](C)c1.O=S(=O)([O-])C(F)(F)F [1-ethyl-3-methylimidazolium trifluoromethanesulfonate] + CC(C)=O
Conditions | mass density, 278.15 K [kg/m3] | mass density, 288.15 K [kg/m3] | mass density, 298.15 K [kg/m3] | mass density, 308.15 K [kg/m3] | mass density, 318.15 K [kg/m3] | speed of sound, 278.15 K [m/s] | speed of sound, 288.15 K [m/s] | speed of sound, 298.15 K [m/s] | speed of sound, 308.15 K [m/s] | speed of sound, 318.15 K [m/s]
x1 = 0.05 | 887.53 ± 0.82 | 876.86 ± 0.84 | 866.08 ± 0.87 | 855.21 ± 0.9 | 844.23 ± 0.93 | 1280.3 ± 1.7 | 1233.3 ± 1.6 | 1191.1 ± 1.6 | 1149.9 ± 1.6 | 1109.3 ± 1.6
x1 = 0.0999 | 953.96 ± 0.66 | 943.44 ± 0.68 | 932.87 ± 0.71 | 922.28 ± 0.74 | 911.64 ± 0.77 | 1299.7 ± 1.7 | 1253.5 ± 1.7 | 1214.3 ± 1.7 | 1176 ± 1.6 | 1138.2 ± 1.6
x1 = 0.1501 | 1010.97 ± 0.59 | 1000.75 ± 0.56 | 990.52 ± 0.58 | 980.27 ± 0.6 | 969.97 ± 0.63 | 1313.5 ± 1.8 | 1273.1 ± 1.7 | 1236.6 ± 1.7 | 1200.8 ± 1.7 | 1165.4 ± 1.7
x1 = 0.2004 | 1060.17 ± 0.78 | 1050.21 ± 0.74 | 1040.29 ± 0.7 | 1030.37 ± 0.67 | 1020.44 ± 0.63 | 1327.8 ± 1.8 | 1291.8 ± 1.8 | 1257.5 ± 1.8 | 1223.7 ± 1.7 | 1190.4 ± 1.7
x1 = 0.2988 | 1138.02 ± 1.1 | 1128.31 ± 1.1 | 1118.66 ± 1.1 | 1109.04 ± 1 | 1099.45 ± 0.98 | 1356.4 ± 1.9 | 1324.7 ± 1.9 | 1293.5 ± 1.9 | 1262.9 ± 1.8 | 1232.8 ± 1.8
x1 = 0.4007 | 1201.1 ± 1.4 | 1191.78 ± 1.4 | 1182.49 ± 1.4 | 1173.23 ± 1.3 | 1164.02 ± 1.3 | 1382.4 ± 2 | 1353 ± 1.9 | 1324.3 ± 1.9 | 1296.1 ± 1.9 | 1268.4 ± 1.9
x1 = 0.5006 | 1250.85 ± 1.7 | 1241.69 ± 1.7 | 1232.59 ± 1.7 | 1223.54 ± 1.6 | 1214.55 ± 1.6 | 1404.5 ± 2 | 1376.7 ± 2 | 1349.7 ± 2 | 1323 ± 2 | 1297.1 ± 2
x1 = 0.6007 | 1291.81 ± 2 | 1282.81 ± 2 | 1273.89 ± 1.9 | 1265.02 ± 1.9 | 1256.22 ± 1.9 | 1423.5 ± 2.1 | 1397.2 ± 2.1 | 1371.6 ± 2.1 | 1346.5 ± 2.1 | 1322 ± 2.1
x1 = 0.7014 | 1326.9 ± 2.3 | 1318.05 ± 2.2 | 1309.28 ± 2.2 | 1300.58 ± 2.2 | 1291.94 ± 2.1 | 1441 ± 2.2 | 1415.8 ± 2.2 | 1391.3 ± 2.2 | 1367.3 ± 2.2 | 1343.8 ± 2.2
x1 = 0.7998 | 1354.5 ± 2.5 | 1345.77 ± 2.5 | 1337.12 ± 2.5 | 1328.53 ± 2.4 | 1320.01 ± 2.4 | 1455.6 ± 2.3 | 1430.9 ± 2.3 | 1407 ± 2.3 | 1383.7 ± 2.3 | 1361 ± 2.3
x1 = 0.8435 | 1365.96 ± 2.7 | 1357.29 ± 2.6 | 1348.69 ± 2.6 | 1340.15 ± 2.5 | 1331.68 ± 2.5 | 1462.5 ± 2.3 | 1437.8 ± 2.3 | 1414.3 ± 2.3 | 1391.2 ± 2.3 | 1368.7 ± 2.3
x1 = 0.9006 | 1379.4 ± 2.8 | 1370.81 ± 2.8 | 1362.28 ± 2.7 | 1353.81 ± 2.7 | 1345.41 ± 2.6 | 1469.4 ± 2.4 | 1445.7 ± 2.4 | 1422.5 ± 2.4 | 1399.9 ± 2.4 | 1377.7 ± 2.4
x1 = 0.9489 | – | – | – | – | 1356.74 ± 2.8 | – | – | – | – | 1384.7 ± 2.4
x1 = 0.9501 | 1390.54 ± 3 | 1382 ± 2.9 | 1373.52 ± 2.9 | 1365.09 ± 2.8 | – | 1475.9 ± 2.4 | 1452.1 ± 2.4 | 1429.1 ± 2.4 | 1406.7 ± 2.4 | –

— the NIST ThermoML archive (doi:10.1021/je9005618)
